The values that follow come from paper PMC7255010, “Small-molecule activating SIRT6 elicits therapeutic effects and synergistically promotes anti-tumor activity of vitamin D3 in colorectal cancer” (Theranostics, 2020).

Where “and” joins values, the source holds several entries; their conditions need not be identical. Identical values can stand only once. Like-named read-outs stand apart in the source and are kept apart here.

One data set deals with SIRT6 (Homo sapiens, UniProt Q8N6T7). Nature of the data set: Cellular thermal shift assay (CETSA) in HCT116 cells. Type of data set: cell-based. The method, then:
CETSA was conducted as previously described. HCT116 cells were seeded in 10-cm cell culture dishes and grown to ~90% confluence. […] Cell pellets were collected by centrifugation (1,000 × g, 5 min, 4 °C), resuspended in 600 μL of 1× PBS, and distributed into different 0.2-mL tubes, each with 40 μL of cell suspension. The tubes were heated at the indicated temperature endpoints (38.5-51.5 °C) for 3 min in a PCR thermocycler. Immediately after heating, the tubes were incubated at room temperature for another 3 min. The samples were subjected to two freeze-thaw cycles in liquid nitrogen. Each cell lysate was centrifuged (15,000 × g for 20 min at 4 °C), and 25 μL of supernatant was collected. The supernatants were lysed in 25 μL of 2× SDS loading buffer at 95 °C for 10 min. Then, the samples were centrifuged, and the supernatants were analyzed by western blotting. Quantification of the SIRT6 level was performed with ImageJ V4. The signal intensity of each protein band on the western blots was normalized to the signal intensity observed at 38.5 °C. The corresponding signal intensities were plotted against temperature in GraphPad Prism V7. Each data point is shown as the mean ± s.e.m. of four independent experiments.

The test system of a further data set is 26 CRC cell lines. As to the kind of experiment: Cell proliferation, CCK-8, panel of 26 CRC cell lines. The note with it: Homo sapiens, CCK-8, 48 h. In kind it is cell-based. The procedure:
Cell proliferation was evaluated using a Cell Counting Kit-8 (CCK-8) (Dojindo) following the manufacturer's instructions. Briefly, CRC cells were plated in 96-well plates at a density of 5 × 10^3 cells per well. […] Cells treated with DMSO were used as the […] controls, and the final DMSO concentration in the medium was 0.1%. After 48 h of treatment, 10 μL of CCK-8 solution was added to every well and incubated for 1 h at 37 °C. Then, a microplate reader (Synergy H4 Hybrid Reader, BioTek) was used to measure the absorbance of the solvent at 450 nm. The background of drug and culture medium has been deducted in each well. The relative cell proliferation of each treatment group was expressed as the percentage change relative to the […] control group. Each data point is the mean ± s.d. of two or three independent experiments.

For the next data set, the system named is FHC cells. As to the kind of experiment: LDH assay of cytotoxicity in FHC cells. The note with it: 48 h. In kind it is cell-based. The method, then: Cell cytotoxicity was assessed by measuring LDH release from damaged or dead cells using a Cytotoxicity LDH Assay Kit-WST (Dojindo) following the manufacturer's instructions. Briefly, 5 × 10^3 cells per well were plated in 96-well plates. […] The final DMSO concentration in the medium was 0.1%. The amount of LDH leakage from the cells was determined by measuring the absorbance at 490 nm using a microplate reader (Synergy H4 Hybrid Reader, BioTek). The percentage of cytotoxicity was calculated as follows: [(test sample - low control)/ (high control - low control)] × 100, where low control is the absorbance of the culture medium without any added extract, and high control is the absorbance of the culture medium in which the cells were treated with 1% (v/v) Triton X-100 to achieve 100% LDH release. Each data point is presented as the mean ± s.d. of three independent experiments.

A short description of data set [1]: Body weights and behaviour of xenograft models. In kind it is in vivo. The note with it: CDX and PDX mice at the efficacy dosage. The procedure: All animal studies were performed following federal and institutional guidelines approved by the Institutional Animal Care and Use Committee at Shanghai Jiao-Tong University School of Medicine. To establish the CDXs, HCT116 cells (1 × 10^6) suspended in 100 μL of 1× PBS were injected subcutaneously into the flanks of six-week-old male BALB/c nude mice. To establish the PDXs, primary tumors resected from two independent CRC patients (patient #1 and #2) were collected in the culture medium. The necrotic and supporting tissues were carefully removed using sterilized surgical blades. The gross tumor was cut into fragments (2-3 mm in diameter) and inoculated subcutaneously into the flanks of nude mice. The mice were monitored daily, and caliper measurements began when tumors became visible. The tumor volume was monitored every other day via calipers. The tumor volume was calculated using the following formula: (L × W ^2) / 2, where L and W refer to the tumor diameter along the longitudinal and transverse axes, respectively. When the mean tumor volume was approximately 100 to 250 mm^3, the mice were randomly grouped (n = 6 per group for CDXs, n = 8 per group for PDXs), and treatment was initiated. […] After treatment or if meeting the humane endpoint criteria, the mice were sacrificed by CO2 asphyxiation. The tumors were dissected, imaged, and weighed. […]

Sequence of SIRT6 (Q8N6T7 whole entry): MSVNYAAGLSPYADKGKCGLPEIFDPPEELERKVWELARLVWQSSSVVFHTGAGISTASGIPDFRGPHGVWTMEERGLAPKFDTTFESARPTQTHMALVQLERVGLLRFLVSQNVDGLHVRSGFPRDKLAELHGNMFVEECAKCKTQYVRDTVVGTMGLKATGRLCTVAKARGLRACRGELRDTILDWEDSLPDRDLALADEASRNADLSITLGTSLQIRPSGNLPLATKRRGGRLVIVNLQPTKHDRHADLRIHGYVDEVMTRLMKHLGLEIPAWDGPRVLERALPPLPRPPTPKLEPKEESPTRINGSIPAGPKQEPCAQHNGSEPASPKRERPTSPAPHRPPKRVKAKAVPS

Consider `Cc1cc(F)c(Br)cc1NS(=O)(=O)c1ccc(NS(=O)(=O)c2cc(Cl)cc(Cl)c2)cc1CN1CCOC[C@H]1C` [MDL-811], for which, on SIRT6 (10 µM MDL-811, 24 h, HCT116 cells, DMSO 45.8 ± 0.3, mean ± s.e.m., four experiments), the “Melting Temperature (Tm) of SIRT6” value is 47.6 ± 0.1 °C and 47.6 °C. Besides, the ΔTm at 10 µM on SIRT6 (HCT-116) stood at 1.8 ± 0.2 °C. The IC50 in the data set on 26 CRC cell lines (more than 75% (20 of 26) of the CRC cell lines, read-out: IC50 in 20 of 26 CRC cell lines) was < 25 µM; in the data set with 26 CRC cell lines (range over 26 CRC cell lines, read-out: IC50 values across the 26 CRC cell lines) it was 4.7 to 61 µM. Also, the “cytotoxicity (LDH release)” value in the data set with FHC cells was “low cytotoxic effect”. Besides, the “weight loss and behavioral signs” value in data set [1] is given as “did not observe any significant weight loss or other abnormal behavioral signs”.

What is called ΔTm is the shift of the melting midpoint relative to a reference. The term IC50 denotes the concentration at which inhibition is half-maximal.
